These results are taken from patent US11873303B2, “Substituted pyrazoles as type II IRAK inhibitors” (Merck Patent GmbH, priority 2018, dated 2024).

The IC50 is the midpoint of a concentration-inhibition curve. What is called melting point is the temperature, or range, at which the solid turns liquid.

Data set [1] addresses T1, IRAK1 (human purified recombinant enzyme His-TEV-IRAK1 (194-712)) (Homo sapiens, UniProt P51617).
T1 construct: His-TEV-IRAK1 (194-712); His (N); TEV cleavage site (N)
As to the kind of experiment: IRAK1 enzymatic assay (ADP-Glo luminescence). The format is biochemical. The conditions noted are these: human recombinant IRAK1, ATP 1 μM. The protocol:
IRAK1 is a human purified recombinant enzyme (His-TEV-IRAK1 (194-712)). In this assay, IRAK1 hydrolysed ATP and autophosphorylated. Measurement of IRAK-1 inhibition was performed in 384-well format based on luminescence assay (ADP-Glo™ Kinase Assay from Promega). Purified human recombinant IRAK1 (0.3 μg/ml) and serial diluted compounds in DMSO (range of concentration from 10 μM to 0.5 nM) or controls (1% DMSO) were incubated for 15 minutes at RT in assay buffer containing 50 mM Hepes pH 7.0, Fatty acid-free BSA 0.1%, Dithiothreitol (DTT) 2 mM, MgCl2 10 mM, EGTA 0.5 mM, Triton X-100 0.01%. The kinase reaction was then initiated by the addition of ATP at a concentration of 1 μM. After 2 hours of incubation at RT, the reaction was stopped and the unconsumed ATP depleted by the addition of ADP-Glo™ Reagent according to supplier instructions. After 40 minutes of incubation at RT, the Kinase Detection Reagent was then added to the assay plate according to supplier instructions. After 20 minutes of incubation at RT, the luminescence signal was measured with a luminometer (PerkinElmer Envision or equivalent reader).
In general terms: In ADP-Glo the light output rises with the ADP produced.

Data set [2] has as its system TLR7 induced IL-6 secretion in human mononuclear cells (PBMC's). As to the kind of experiment: TLR7 induced IL-6 in human PBMC's. The format is cell-based. The conditions noted are these: TLR7 ligand 2 uM overnight, IL-6 AlphaLISA. The protocol:
TLR7 Induced IL-6 in Human PBMC's
Human PBMC assay was used as one of the functional assays to monitor the activity of IRAK1 and IRAK4 small molecule inhibitors on TLR7 induced IL-6 secretion in human mononuclear cells (PBMC's). Human PBMCs were prepared from buffy coats (whole blood enriched with leukocytes and platelets) obtained from healthy volunteers used either fresh or frozen were plated in assay media (RPMI+2% P/S/L-glu+10% HI-FBS) and pre-treated with compounds in DMSO/media (range of concentrations from 25 uM to 0.4 nM) or controls (0.25% DMSO) for 30 minutes at 37° C. in assay media. Following pre-treatment with IRAK1 and IRAK4 inhibitors, PBMC's were stimulated with TLR7 specific ligand (2 uM) overnight (16-18 hrs) at 37° C. After incubation supernatant was transferred to 384 well PE AlphaPlate-384 and IL-6 was quantified using Perkin Elmer IL-6 Alpha LISA kit (AL223C). Plates were read on an Envision® plate reader with Alpha Technology®.
Background: In Alpha technology, singlet oxygen from a donor bead excites a nearby acceptor bead.

In data set [3] the target is T2, IRAK4 (human purified recombinant enzyme His-TEV-IRAK4 (1-460)) (Homo sapiens, UniProt Q9NWZ3).
T2 construct: His-TEV-IRAK4 (1-460); His (N); TEV cleavage site (N)
T2 sequence (Q9NWZ3 1-460): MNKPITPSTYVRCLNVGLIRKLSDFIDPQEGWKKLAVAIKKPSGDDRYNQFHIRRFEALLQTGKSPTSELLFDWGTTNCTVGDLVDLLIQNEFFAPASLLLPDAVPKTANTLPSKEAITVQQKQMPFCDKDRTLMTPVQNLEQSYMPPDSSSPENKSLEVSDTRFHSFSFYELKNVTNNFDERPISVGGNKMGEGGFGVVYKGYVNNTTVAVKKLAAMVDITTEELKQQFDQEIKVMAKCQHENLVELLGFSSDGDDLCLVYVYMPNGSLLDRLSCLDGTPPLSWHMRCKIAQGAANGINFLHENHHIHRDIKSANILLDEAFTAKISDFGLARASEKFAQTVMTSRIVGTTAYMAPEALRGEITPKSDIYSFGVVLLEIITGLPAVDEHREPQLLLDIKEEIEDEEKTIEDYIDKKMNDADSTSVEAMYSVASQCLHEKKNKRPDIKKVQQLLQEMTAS
As to the kind of experiment: IRAK4 enzymatic assay (ADP-Glo luminescence). The format is biochemical. The following applies: human recombinant IRAK4, ATP 2 μM, STK1-biotin peptide. The protocol:
IRAK4 is a human purified recombinant enzyme (His-TEV-IRAK4 (1-460)). In this assay, IRAK4 hydrolysed ATP, autophosphorylated and phosphorylated a Serine/Threonine generic peptidic substrate (STK: 61ST1BLC from CisBio International). Measurement of IRAK-4 inhibition was performed in 384-well format based on a luminescence assay (ADP-Glo™ Kinase Assay from Promega). Purified human recombinant IRAK4 (0.3 μg/ml) and serial diluted compounds in DMSO (range of concentration from 10 μM to 0.5 nM) or controls (1% DMSO) were incubated for 15 minutes at RT in assay buffer containing 50 mM Hepes pH 7.0, Fatty acid-free BSA 0.1%, Dithiothreitol (DTT) 2 mM, MgCl2 10 mM, EGTA 0.5 mM, Triton X-100 0.01%, MnCl2 5 mM. The kinase reaction was then initiated by the addition of ATP (2 μM) and the peptidic substrate STK1-biotin peptide (300 nM). After 2 hours of incubation at RT, the reaction was stopped and the unconsumed ATP depleted by the addition of ADP-Glo™ Reagent according to supplier instructions. After 40 minutes of incubation at RT, the Kinase Detection Reagent was then added to the assay plate according to supplier instructions. After 20 minutes of incubation at RT, the luminescence signal was measured with a plate-reading luminometer (PerkinElmer Envision or equivalent reader).

T1 sequence (P51617 194-712): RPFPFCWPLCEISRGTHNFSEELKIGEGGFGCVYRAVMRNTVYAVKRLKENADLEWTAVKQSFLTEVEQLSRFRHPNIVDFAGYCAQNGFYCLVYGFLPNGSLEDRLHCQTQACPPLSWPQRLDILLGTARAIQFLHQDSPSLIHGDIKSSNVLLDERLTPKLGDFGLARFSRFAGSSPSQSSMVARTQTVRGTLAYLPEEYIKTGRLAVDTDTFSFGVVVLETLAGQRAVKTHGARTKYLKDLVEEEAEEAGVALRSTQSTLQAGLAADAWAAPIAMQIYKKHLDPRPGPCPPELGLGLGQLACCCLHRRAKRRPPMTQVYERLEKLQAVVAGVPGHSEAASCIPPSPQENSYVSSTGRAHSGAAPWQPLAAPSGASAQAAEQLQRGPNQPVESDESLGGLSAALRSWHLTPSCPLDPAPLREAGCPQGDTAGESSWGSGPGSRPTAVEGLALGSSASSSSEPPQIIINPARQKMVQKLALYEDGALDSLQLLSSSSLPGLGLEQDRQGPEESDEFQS

The molecule `Cc1ccc(-n2nc(C(C)(C)CO)cc2NC(=O)Nc2ccc(-c3nn(C)c4ncnc(N)c34)cc2Cl)cc1` [Example 17, 1-(4-{4-amino-1-methyl-1H-pyrazolo[3,4-d]pyrimidin-3-yl}-2-chlorophenyl)-3-[3-(1-hydroxy-2-methylpropan-2-yl)-1-(4-methylphenyl)-1H-pyrazol-5-yl]urea] came in with a melting point of 192 to 194 °C. Further, the IC50 in data set [1] was below 100 nM. In data set [2], this molecule had a concentration for half-maximal inhibition (IC50) below 100 nM. Moreover, in data set [3], the IC50 lay within 1000 to 5000 nM.
On to `Cc1ccc(-n2nc(C3(C)COC3)cc2NC(=O)Nc2ccc(-c3nn(C)c4ncnc(N)c34)cc2Cl)cc1` [Example 18, 1-(4-{4-amino-1-methyl-1H-pyrazolo[3,4-d]pyrimidin-3-yl}-2-chlorophenyl)-3-[3-(3-methyloxetan-3-yl)-1-(4-methylphenyl)-1H-pyrazol-5-yl]urea], for which the melting point fell in the range of 170 to 172 °C. Further, the IC50 in data set [1] is below 100 nM. Moreover, the IC50 in data set [2] fell in the range of 100 to 1000 nM. Moreover, in data set [3], the IC50 was 1000 to 5000 nM.
`Cc1ccc(-n2nc(C(C)(C)C)cc2NC(=O)N[C@H]2CC[C@@H](c3cn(C)c4ncnc(N)c43)CC2)cc1` [Example 27, 3-[3-tert-butyl-1-(4-methylphenyl)-1H-pyrazol-5-yl]-1-[(1s,4s)-4-{4-amino-7-methyl-7H-pyrrolo[2,3-d]pyrimidin-5-yl}cyclohexyl]urea] displayed a melting point of 228 to 230 °C. In data set [1], the IC50 fell in the range of 100 to 1000 nM. Also, in data set [3], the 50% inhibitory concentration (IC50) lay within 1000 to 5000 nM.
On to `Cc1ccc(-n2nc(C(C)(C)C#N)cc2NC(=O)Nc2ccc(-c3csc4ncnc(N)c34)cc2Cl)cc1` [Example 22, 1-[4-(4-Amino-thieno[2,3-d]pyrimidin-5-yl)-2-chloro-phenyl]-3-[5-(cyano-dimethyl-methyl)-2-p-tolyl-2H-pyrazol-3-yl]-urea], for which the half-maximal inhibitory concentration (IC50) in data set [1] was 100 to 1000 nM; in data set [2], above 5000 nM; in data set [3] it was 1000 to 5000 nM.
For the molecule `Cc1ccc(-n2nc(C(C)(C)C)cc2NC(=O)Nc2ccc(-c3csc4ncnc(N)c34)c(F)c2)cc1` [Example 6, 1-[4-(4-Amino-thieno[2,3-d]pyrimidin-5-yl)-3-fluoro-phenyl]-3-(5-tert-butyl-2-p-tolyl-2H-pyrazol-3-yl)-urea], the figures for the half-inhibitory concentration (IC50) in data set [1], in data set [2] and in data set [3] were below 100 nM, below 100 nM and 100 to 1000 nM, respectively.
`CC(C)c1ccc(-n2nc(C(C)(C)C)cc2NC(=O)Nc2ccc(-c3nn(C)c4ncnc(N)c34)c(F)c2)cc1` [Example 3, 1-[4-(4-Amino-1-methyl-1H-pyrazolo[3,4-d]pyrimidin-3-yl)-3-fluoro-phenyl]-3-[5-tert-butyl-2-(4-isopropyl-phenyl)-2H-pyrazol-3-yl]-urea]: the IC50 is below 100 nM in data set [1], below 100 nM in data set [2] and 100 to 1000 nM in data set [3].
On to `CC(C)c1ccc(-n2nc(C(C)(C)C)cc2NC(=O)Nc2ccc(-c3nn(C)c4ncnc(N)c34)cc2)cc1` [Example 1, 1-(4-{4-amino-1-methyl-1H-pyrazolo[3,4-d]pyrimidin-3-yl}phenyl)-3-{3-tert-butyl-1-[4-(propan-2-yl)phenyl]-1H-pyrazol-5-yl}urea], for which the IC50 was below 100 nM in data set [1], below 100 nM in data set [2] and 100 to 1000 nM in data set [3].
As to `Cc1ccc(-n2nc(C(C)(C)C)cc2NC(=O)Nc2ccc(-c3csc4ncnc(N)c34)cc2F)cc1` [Example 7, 1-[4-(4-Amino-thieno[2,3-d]pyrimidin-5-yl)-2-fluoro-phenyl]-3-(5-tert-butyl-2-p-tolyl-2H-pyrazol-3-yl)-urea], the IC50 in data set [1], in data set [2] and in data set [3] was below 100 nM throughout.
In the case of `Cc1ccc(-n2nc(C(C)(C)C(F)(F)F)cc2NC(=O)Nc2ccc(-c3csc4ncnc(N)c34)cc2Cl)cc1` [Example 24, 1-[4-(4-Amino-thieno[2,3-d]pyrimidin-5-yl)-2-chloro-phenyl]-3-[2-p-tolyl-5-(2,2,2-trifluoro-1,1-dimethyl-ethyl)-2H-pyrazol-3-yl]-urea], the half-inhibitory concentration (IC50) in data set [1] is below 100 nM; in data set [2], below 100 nM; in data set [3] it was 100 to 1000 nM.
For `CC(C)c1ccc(-n2nc(C(C)(C)C)cc2NC(=O)Nc2ccc(-c3nn(C)c4ccnc(N)c34)cc2)cc1` [Example 14, 1-[4-(4-Amino-1-methyl-1H-pyrazolo[4,3-c]pyridin-3-yl)-phenyl]-3-[5-tert-butyl-2-(4-isopropyl-phenyl)-2H-pyrazol-3-yl]-urea], the figures for the half-maximal inhibitory concentration (IC50) in data set [1], in data set [2] and in data set [3] were below 100 nM, below 100 nM and 100 to 1000 nM, respectively.
As for `CC(C)c1ccc(-n2nc(C(C)(C)C)cc2NC(=O)Nc2ccc(-c3nn(C)c4ncnc(N)c34)cc2F)cc1` [Example 9, 1-(4-{4-amino-1-methyl-1H-pyrazolo[3,4-d]pyrimidin-3-yl}-2-fluorophenyl)-3-{3-tert-butyl-1-[4-(propan-2-yl)phenyl]-1H-pyrazol-5-yl}urea], the IC50 in data set [1], in data set [2] and in data set [3] was below 100 nM in each case.
As to `Cc1ccc(-n2nc(C(C)(C)C)cc2NC(=O)Nc2ccc(-c3nn(C)c4ncnc(N)c34)c(F)c2)cc1` [Example 2, 1-[4-(4-Amino-1-methyl-1H-pyrazolo[3,4-d]pyrimidin-3-yl)-3-fluoro-phenyl]-3-(5-tert-butyl-2-p-tolyl-2H-pyrazol-3-yl)-urea], the IC50 in data set [1], in data set [2] and in data set [3] was below 100 nM throughout.
In the case of `Cc1ccc(-n2nc(C(C)(C)CO)cc2NC(=O)Nc2ccc(-c3csc4ncnc(N)c34)cc2Cl)cc1` [Example 21, 1-(4-{4-aminothieno[2,3-d]pyrimidin-5-yl}-2-chlorophenyl)-3-[3-(1-hydroxy-2-methylpropan-2-yl)-1-(4-methylphenyl)-1H-pyrazol-5-yl]urea], the IC50 is 100 to 1000 nM in data set [1], above 5000 nM in data set [2] and above 5000 nM in data set [3].
